Laboratory results reported in patent publication US11584742B2 (MASARYKOVA UNIVERZITA, priority 2018, dated 2023).
pIC50: −log10 of the molar value.

Columns and labels:
DR-GFP U2OS cells = assay: HR assay (GFP fluorescence after I-SceI transfection, flow cytometry); assay type: cell-based; details: Homo sapiens, inhibitor at 25 μM, 72 hours after transfection
Description: DR-GFP U2OS cells (Methods in Molecular Biology 2012, 920, 379.) were transfected with 2.5 μg of I-SceI-expressing pCAGGS vector and treated with the inhibitors at 25 μM concentration. 72 hours after the transfection, the cells were trypsinized and resuspended in 3% BSA in PBS. GFP fluorescence detection was carried out using a BD FACSVerse flow cytometer and data analyzed with FlowJo software.

MRE11 = molecular target: T1, MRE11 (Homo sapiens, UniProt P49959); assay: HTS nuclease assay (cleavage of CY5/BBQ-quenched 5' overhang DNA substrate); assay type: biochemical; details: in vitro HTS nuclease assay; 18 nM MRE11, 40 nM DNA substrate; analysis at t=4 h
T1 sequence (P49959 1-708): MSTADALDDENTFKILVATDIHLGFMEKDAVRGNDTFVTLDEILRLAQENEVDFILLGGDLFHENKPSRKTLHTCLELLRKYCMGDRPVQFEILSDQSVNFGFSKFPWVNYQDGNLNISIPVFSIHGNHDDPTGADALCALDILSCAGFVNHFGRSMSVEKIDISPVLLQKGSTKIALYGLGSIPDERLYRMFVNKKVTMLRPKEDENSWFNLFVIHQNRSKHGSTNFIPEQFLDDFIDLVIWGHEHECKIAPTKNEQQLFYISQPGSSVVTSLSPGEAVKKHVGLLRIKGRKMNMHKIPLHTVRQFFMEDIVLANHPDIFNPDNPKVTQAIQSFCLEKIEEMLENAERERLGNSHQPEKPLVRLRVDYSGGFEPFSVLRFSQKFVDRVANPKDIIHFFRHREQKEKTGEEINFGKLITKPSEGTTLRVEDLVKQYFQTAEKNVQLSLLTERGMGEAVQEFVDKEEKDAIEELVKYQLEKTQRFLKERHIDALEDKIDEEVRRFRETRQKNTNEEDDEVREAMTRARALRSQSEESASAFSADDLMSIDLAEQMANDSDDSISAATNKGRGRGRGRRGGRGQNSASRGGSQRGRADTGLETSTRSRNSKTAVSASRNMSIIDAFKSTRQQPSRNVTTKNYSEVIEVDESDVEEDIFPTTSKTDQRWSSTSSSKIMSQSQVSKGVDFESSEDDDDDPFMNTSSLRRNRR
Description: DNA Substrate Preparation
The DNA substrate is prepared by mixing the oligonucleotides listed below in a 1:1 ratio to reach a final concentration of 6 μM in a buffer containing 50 mM Tris pH 7.5, 100 mM NaCl and 8 mM MgCl2.
This substrate is a 5′ overhang, which is a preferred substrate of MRE11. […] The fluorescence increases upon substrate cleavage by MRE11, when separation of the two labels occur.
The conditions of the assay are as follows:
Total reaction volume: 5 μL
DNA substrate concentration in the reaction: 40 nM
Inhibitor concentration range tested: 7 nM-50 μM
Each plate contains a series of high and low signal control wells, where no compound is added:
High signal: MRE11+DNA substrate
Low signal: DNA substrate only
These are used during data evaluation.
Two extra assay controls:
1) To check whether unwinding of DNA by the compounds alone occurs.
The DNA substrate [CY5+BBQ(650)] is mixed with the compounds with no protein present.
The CY5 single stranded oligo is mixed with the compounds with no protein present.
The layout of the plates is created by the in-house software (CZ-Openscreen Prague) and this information is transferred to the robotic HTS station.
The reaction is started by the addition of DNA and the reaction time is counted from that moment, including a 15 min delay. Ten timepoints are measured:
The assay data analysis was performed at t=4 h. This corresponds to the time when the reaction is close to its maximum.
The data analysis was performed using the in-house software to obtain IC50 for each compound.

For `N#CC(C(=O)Nc1nc(-c2ccccc2)cs1)=C(c1ccccc1)c1ccc(O)c(O)c1` (mixture of isomers) [Preparative Example 190, (E/Z)-2-cyano-3-(3,4-dihydroxyphenyl)-3-phenyl-N-(4-phenylthiazol-2-yl)acrylamide], the inhibition at 25 µM (DR-GFP U2OS cells) was over 75% and the pIC50 (MRE11) was over 5.70.

`N#CC(=Cc1c[nH]cn1)C(=O)Nc1nc(-c2ccccc2)cs1` (racemic) [Preparative Example 214, (E)- and (Z)-2-cyano-3-(1H-imidazol-4-yl)-N-(4-phenylthiazol-2-yl)acrylamide] showed an inhibition at 25 µM (DR-GFP U2OS cells) of under 50% and a pIC50 (MRE11) of 4.05 to 5.00.

`COc1ccc(-c2csc(NC(=O)/C(C#N)=C/c3ccc(O)c(O)c3)n2)cc1` [Preparative Example 162, (E)-2-cyano-3-(3,4-dihydroxyphenyl)-N-(4-(4-methoxyphenyl)thiazol-2-yl)acrylamide] showed an inhibition at 25 µM (DR-GFP U2OS cells) of over 75% and a pIC50 (MRE11) of over 5.70.

In the case of `N#C/C(=C\c1ccc(O)c(O)c1)C(=O)Nc1nc(-c2ccc3ccccc3c2)cs1` [Preparative Example 163, (E)-2-cyano-3-(3,4-dihydroxyphenyl)-N-(4-(naphthalen-2-yl)thiazol-2-yl)acrylamide], the inhibition at 25 µM (DR-GFP U2OS cells) was over 75% and the pIC50 (MRE11) was over 5.70.

`N#C/C(=C\c1ccc(O)c(O)c1)C(=O)Nc1nc(-c2ccc(-c3ccccc3)cc2)cs1` [Preparative Example 164, (E)-N-(4-([1,1′-biphenyl]-4-yl)thiazol-2-yl)-2-cyano-3-(3,4-dihydroxyphenyl)acrylamide] was tested, and the inhibition at 25 µM (DR-GFP U2OS cells) was over 75% and the pIC50 (MRE11) was 5.00 to 5.70.

`N#C/C(=C\c1cc(Cl)c(O)c(Cl)c1)C(=O)Nc1nc(-c2ccc(Br)cc2)cs1` [Preparative Example 165, (E)-N-(4-(4-bromophenyl)thiazol-2-yl)-2-cyano-3-(3,5-dichloro-4-hydroxyphenyl)acrylamide] showed an inhibition at 25 µM (DR-GFP U2OS cells) of 50 to 75% and a pIC50 (MRE11) of over 5.70.

Compound `COc1ccc(-c2csc(NC(=O)/C(C#N)=C/c3ccc(O)c(O)c3)n2)cc1O` [Preparative Example 166, (E)-2-cyano-3-(3,4-dihydroxyphenyl)-N-(4-(3-hydroxy-4-methoxyphenyl)thiazol-2-yl)acrylamide] has an inhibition at 25 µM (DR-GFP U2OS cells) of over 75% and a pIC50 (MRE11) of over 5.70.

With `CC(C)(O)c1csc(NC(=O)/C(C#N)=C/c2ccc(O)c(O)c2)n1` [Preparative Example 167, (E)-2-cyano-3-(3,4-dihydroxyphenyl)-N-(4-(2-hydroxypropan-2-yl)thiazol-2-yl)acrylamide] the inhibition at 25 µM (DR-GFP U2OS cells) was under 50% and the pIC50 (MRE11) was 5.00 to 5.70.

For `Cc1ccc(-c2csc(NC(=O)/C(C#N)=C/c3cc(Cl)c(O)c(Cl)c3)n2)cc1` [Preparative Example 168], the inhibition at 25 µM (DR-GFP U2OS cells) was over 75% and the pIC50 (MRE11) was over 5.70.

`N#C/C(=C\c1ccc(O)c(O)c1)C(=O)Nc1nc(-c2cccc(Br)c2)cs1` [Preparative Example 169, (E)-N-(4-(3-bromophenyl)thiazol-2-yl)-2-cyano-3-(3,4-dihydroxyphenyl)acrylamide] gave an inhibition at 25 µM (DR-GFP U2OS cells) of over 75% and a pIC50 (MRE11) of over 5.70.

With `N#C/C(=C\c1ccc(O)c(O)c1)C(=O)Nc1nc(-c2ccccc2Br)cs1` [Preparative Example 170, (E)-N-(4-(2-bromophenyl)thiazol-2-yl)-2-cyano-3-(3,4-dihydroxyphenyl)acrylamide] the inhibition at 25 µM (DR-GFP U2OS cells) was 50 to 75% and the pIC50 (MRE11) was over 5.70.

In the case of `N#C/C(=C\c1ccc(O)c(O)c1)C(=O)Nc1nc(-c2cccc(OC(F)(F)F)c2)cs1` [Preparative Example 171, (E)-2-cyano-3-(3,4-dihydroxyphenyl)-N-(4-(3-(trifluoromethoxy)phenyl)thiazol-2-yl)acrylamide], the inhibition at 25 µM (DR-GFP U2OS cells) was 50 to 75% and the pIC50 (MRE11) was 5.00 to 5.70.

For `N#C/C(=C\c1ccc(O)c(O)c1)C(=O)Nc1nc(-c2ccc(Oc3ccccc3)cc2)cs1` [Preparative Example 172, (E)-2-cyano-3-(3,4-dihydroxyphenyl)-N-(4-(4-phenoxyphenyl)thiazol-2-yl)acrylamide], the inhibition at 25 µM (DR-GFP U2OS cells) was over 75% and the pIC50 (MRE11) was 5.00 to 5.70.

`N#C/C(=C\c1ccc(O)c(O)c1)C(=O)Nc1nc(-c2cc3ccccc3o2)cs1` [Preparative Example 173, (E)-N-(4-(benzofuran-2-yl)thiazol-2-yl)-2-cyano-3-(3,4-dihydroxyphenyl)acrylamide] was tested, and the inhibition at 25 µM (DR-GFP U2OS cells) was over 75% and the pIC50 (MRE11) was over 5.70.

`N#C/C(=C\c1ccc(O)c(O)c1)C(=O)Nc1nc(C23CC4CC(CC(C4)C2)C3)cs1` [Preparative Example 174, (E)-N-(4-((1S,3s)-adamantan-1-yl)thiazol-2-yl)-2-cyano-3-(3,4-dihydroxyphenyl)acrylamide] gave an inhibition at 25 µM (DR-GFP U2OS cells) of 50 to 75% and a pIC50 (MRE11) of 5.00 to 5.70.

For `N#C/C(=C\c1ccc(O)c(O)c1)C(=O)Nc1nc(-c2ccc(OC(F)(F)F)cc2)c(C2CCCCC2)s1` [Preparative Example 175, (E)-2-cyano-N-(5-cyclohexyl-4-(4-(trifluoromethoxy)phenyl)thiazol-2-yl)-3-(3,4-dihydroxyphenyl)acrylamide], the inhibition at 25 µM (DR-GFP U2OS cells) was over 75% and the pIC50 (MRE11) was 5.00 to 5.70.

In the case of `Cc1cc(/C=C(\C#N)C(=O)Nc2nc(-c3ccc(OC(F)(F)F)cc3)cs2)cc(C)c1O` [Preparative Example 177, (E)-2-cyano-3-(3,5-dimethyl-4-hydroxyphenyl)-N-(4-(4-(trifluoromethoxy)phenyl)thiazol-2-yl)acrylamide], the inhibition at 25 µM (DR-GFP U2OS cells) was over 75%.

With `Cc1cc(/C=C(\C#N)C(=O)Nc2nc(-c3ccccc3)cs2)ccc1O` [Preparative Example 217, (E)-2-cyano-3-(4-hydroxy-3-methylphenyl)-N-(4-phenylthiazol-2-yl)acrylamide] the inhibition at 25 µM (DR-GFP U2OS cells) was 50 to 75%.

`N#C/C(=C\c1ccc(O)cc1O)C(=O)Nc1nc(-c2ccccc2)cs1` [Preparative Example 218, (E)-2-cyano-3-(2,4-dihydroxyphenyl)-N-(4-phenylthiazol-2-yl)acrylamide] was tested, and the inhibition at 25 µM (DR-GFP U2OS cells) was 50 to 75%.

For `CC(C)(C)c1cc(/C=C(\C#N)C(=O)Nc2nc(-c3ccc(OC(F)(F)F)cc3)cs2)cc(C(C)(C)C)c1O` [Preparative Example 221], the inhibition at 25 µM (DR-GFP U2OS cells) was under 50%.

`Cc1cc(/C=C(\C#N)C(=O)Nc2nc(-c3ccccc3)cs2)cc(C(C)(C)C)c1O` [Preparative Example 234, (E)-3-(3-(tert-butyl)-4-hydroxy-5-methylphenyl)-2-cyano-N-(4-phenylthiazol-2-yl)acrylamide] showed an inhibition at 25 µM (DR-GFP U2OS cells) of over 75%.

In the case of `CC(C)(C)c1cc(/C=C(\C#N)C(=O)Nc2nc(-c3ccccc3)cs2)ccc1O` [Preparative Example 235, (E)-3-(3-(tert-butyl)-4-hydroxyphenyl)-2-cyano-N-(4-phenylthiazol-2-yl)acrylamide], the inhibition at 25 µM (DR-GFP U2OS cells) was over 75%.

For `CC(C)c1cc(/C=C(\C#N)C(=O)Nc2nc(-c3ccccc3)cs2)cc(C(C)C)c1O` [Preparative Example 237, (E)-2-cyano-3-(4-hydroxy-3,5-diisopropylphenyl)-N-(4-phenylthiazol-2-yl)acrylamide], the inhibition at 25 µM (DR-GFP U2OS cells) was over 75%.

Work on `CC(C)(C)c1cc(/C=C(\C#N)C(=O)Nc2nc(-c3ccccc3)cs2)cc(C(C)(C)C)n1` [Preparative Example 240, (E)-2-cyano-3-(2,6-di-tert-butylpyridin-4-yl)-N-(4-phenylthiazol-2-yl)acrylamide] yielded an inhibition at 25 µM (DR-GFP U2OS cells) of over 75%.

Work on `N#C/C(=C\c1cc(Cl)c(O)c(Cl)c1)C(=O)Nc1nc(Cc2ccccc2)cs1` [Preparative Example 275, (E)-N-(4-benzylthiazol-2-yl)-2-cyano-3-(3,5-dichloro-4-hydroxyphenyl)acrylamide] yielded a pIC50 (MRE11) of 4.05 to 5.00.

With `N#C/C(=C\c1cc(Br)c(O)c(Br)c1)C(=O)Nc1nc(Cc2ccccc2)cs1` [Preparative Example 276, (E)-N-(4-benzylthiazol-2-yl)-2-cyano-3-(3,5-dibromo-4-hydroxyphenyl)acrylamide] the pIC50 (MRE11) was 5.00 to 5.70.
